The source of these data is patent US7173030B2, “Inhibitors of 11-β-hydroxy steroid dehydrogenase type 1” (Biovitrum AB, priority 2003, dated 2007).

In assay [1] the target is T1, human 11-β-hydroxysteroid dehydrogenase type-1 enzyme (11-β-HSD1) (Homo sapiens, UniProt P28845).
T1 construct: made in house; host or cells: Pichia pastoris
Description: Scintillation proximity assay: human 11-β-HSD1 enzyme assay. Type of assay: biochemical. The conditions noted are these: Ki calculated from IC50 (Cheng Prushoff). An excerpt: [1,2(n)-^3H]-cortisone was purchased from Amersham Pharmacia Biotech. Anti-cortisol monoclonal mouse antibody, clone 6D6.7 was obtained from Immunotech and Scintillation proximity assay (SPA) beads coated with monoclonal antimouse antibodies were from Amersham Pharmacia Biotech. NADPH, tetrasodium salt was from Calbiochem and glucose-6-phosphate (G-6-P) was supplied by Sigma. The human 11-β-hydroxysteroid dehydrogenase type-1 enzyme (11-β-HSD1) was expressed in Pichia pastoris. 18-β-glycyrrhetinic acid (GA) was obtained from Sigma. The serial dilutions of the compounds were performed on a Tecan Genesis RSP 150. […]
The multiplication of plates was done on a WallacQuadra. The amount of the product [^3H]-cortisol, bound to the beads was determined in a Packard, Top Count microplate liquid scintillation counter. […]
The plates were covered with plastic film and incubated on a shaker for 30 minutes, at room temperature, before counting. The amount of [^3H]-cortisol, bound to the beads was determined in a microplate liquid scintillation counter.
The calculation of the Ki values for the inhibitors was performed by use of Activity Base. The Ki value is calculated from IC50 and the Km value is calculated using the Cheng Prushoff equation (with reversible inhibition that follows the Michaelis-Menten equation): […] [Cheng, Y. C.; Prushoff, W. H. Biochem. Pharmacol. 1973, 22, 3099–3108]. […]

Assay [2] deals with Diabetic KKA^y mice. Kind of assay: Wound healing of surgical wounds in diabetic KKA^y mice. Type of assay: in vivo. Particulars: oral twice daily 200 mg/kg/day for 3.5 days. How it is done:
Diabetic KKA^y mice underwent surgery during anesthesia whereby a catheter was inserted in the jugularis vein. Oral treatment twice daily (200 mg/kg/day) with the 11β-HSD1 inhibitor BVT.2733 (disclosed as Example 172A in WO 01/90090), or vehicle started 4–6 days later and continued for 3.5 days.
Advantageous effects on wound healing of the surgical wounds were observed during treatment.

Assay [3] concerns intraocular pressure. Particulars: normal subjects; Raus et al 2001; cited from earlier work.
In assay [4] the test system is hepatic insulin sensitivity. Particulars: healthy human volunteers; Walker et al. 1995; cited from earlier work.

pKi: −log10 of the molar value.

T1 sequence (P28845 whole entry): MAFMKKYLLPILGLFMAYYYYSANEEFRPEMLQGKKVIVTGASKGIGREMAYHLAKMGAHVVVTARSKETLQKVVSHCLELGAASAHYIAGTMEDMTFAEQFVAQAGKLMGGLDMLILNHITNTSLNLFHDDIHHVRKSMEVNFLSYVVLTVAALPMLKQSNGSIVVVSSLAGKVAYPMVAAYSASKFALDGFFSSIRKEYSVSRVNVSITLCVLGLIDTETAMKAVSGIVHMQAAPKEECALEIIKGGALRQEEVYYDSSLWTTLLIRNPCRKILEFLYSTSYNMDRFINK

As to `CC(C)c1nnc(NS(=O)(=O)c2ccc(Oc3ccccc3)cc2)s1` [Example 244, N-(5-isopropyl-1,3,4-thiadiazol-2-yl)-4-phenoxybenzenesulfonamide], in assay [1], the pKi (in general, −log10 of the Ki, conventionally taken in molar units) was 6.66.
For the molecule BVT.2733, the “animals showing complications during treatment period” value in assay [2] (jugular catheter surgery, vehicle 58%) was 24%. Moreover, the “effects on wound healing of the surgical wounds” value in assay [2] (compared to control mice) was “less pus in the wound, as well as better wound strength”.
Regarding `Cc1ccc([N+](=O)[O-])cc1S(=O)(=O)Nc1nc(C(C)C)ns1` [Example 80, N-(3-isopropyl-1,2,4-thiadiazol-5-yl)-2-methyl-5-nitrobenzenesulfonamide], the negative logarithm of the Ki (pKi) in assay [1] was 6.49.
For `CC1(C)[C@@H](OC(=O)CCC(=O)O)CC[C@]2(C)[C@H]3C(=O)C=C4[C@@H]5C[C@@](C)(C(=O)O)CC[C@]5(C)CC[C@@]4(C)[C@]3(C)CC[C@@H]12` [carbenoxolone], the “reduction of intraocular pressure” value in assay [3] is recorded as 20%. In assay [4], the hepatic insulin sensitivity result is listed as “improved”.
